Five substances from patent US20110197293A1, “SENSE AND ANTISENSE TRANSCRIPTS OF TRPM2 AND USES THEREOF” (GIOVANNI LAVORGNA, priority 2008, published 2011) can be followed below.

What all share (format): cell-based, human
One data set has as its system TRPM2-AS transcript. Description: qPCR of TRPM2-AS transcript after siRNA transfection in Mel Im cells. Particulars: siRNA 10 nM, harvested at 24 hours, respect to mock-transfected cells. From the text:
(§1) Beta-actin (Exons 5-6) was amplified from cDNAs using the specific primers: LC+hBactin-U 5′-TCCTCCTGGAGAAGAGCTA-3′ (SEQ ID No. 6) and LC+hBactin-L 5′-GGATGCCACAGGACTCCAT-3′ (SEQ ID No. 7) coupled to human Universal Probe Library (UPL) probe number 11 (Roche) resulting in a 124 bp fragment. TRPM2-FL (Exons 20-21) was amplified by RT-PCR from cDNAs using the specific primers: RCH_LONG_TRPM2_U 5′-ACCTCCTCATCGCCATGTT-3′ (SEQ ID No. 8) and RCH_LONG_TRPM2_L 5′-[…]-3′ (SEQ ID No. 9) coupled to human UPL probe number 11, resulting in a 68 bp fragment. TRPM2-AS (Exons 1-2) was amplified by RT-PCR from cDNAs using the specific primers: RCH-asmel-1F 5′-[…]-3′ (SEQ ID No. 10) and RCH-asmel-1R 5′-[…]-3′ (SEQ ID No. 11) coupled to human UPL probe number 57, resulting in a 61 bp fragment. TRPM2-TE was amplified from cDNAs using the primers: UPL-TSS-U 5′-GATGTTTTGGCGGAAGGAC-3′ (SEQ ID No. 12) and UPL-TSS-Rev 5′-CAGGAAGACGTGACGCAAG-3′ (SEQ ID No. 13) coupled to human UPL probe number 6, resulting in a 88 bp intronless fragment. The contribution of genomic DNA contamination to the detected signal was subtracted by running a parallel real-time quantification from a RT-minus reaction, where the RT-enzyme was substituted with water. When RNA was not available to perform the RT-minus control, the contribution of DNA contamination to the detected signal was subtracted by performing a real-time quantification on the same samples, using a couple of primers specific for the Beta-actin promoter: LC-ProBACT-U1 5′-[…]-3′ (SEQ ID No. 14) and LC-ProBACT-L1 5′-[…]-3′ (SEQ ID No. 15) coupled to human UPL probe number 81 (Roche) resulting in a 85 bp fragment. Real time PCR reactions were performed on a LightCycler 480 instrument (Roche), on 96 multiwell plates (Roche) using LightCycler 480 ProbeMaster Mix (Roche) following the manufacturer instructions. Briefly, all reactions were performed in a final 30 μl volume containing 15 μl of 2× MasterMix, 0.6 μl of each primer (20 μmol/L), 0.3 μl of the corresponding UPL probe (10 μmol/L), and 10 μl of template cDNA. Only for TRPM2-AS the reaction was supplemented with 6 μl of 5× Solution-Q (Qiagen) and the cDNA template lowered to 7 μl. The resulting mix was pre-incubated for 10 minutes at 95° C., then amplification reactions were performed by 45 repetitive cycles of denaturing for 10 seconds at 95° C., annealing for 15 seconds at 58° C. and a final extension plus single acquisition step at 72° C. for 1 second. Levels of target gene transcripts were normalized to transcript levels of a reference gene (Beta-actin) and calculated using a relative quantification model with efficiency correction. Amplification efficiency of primer pairs was calculated from serial dilutions of a representative cDNA template over a concentration range of 3 log orders. […]
(Quantitative PCR measures a nucleic acid by following its amplification.)

The test system of a further data set is TRPM2-TE transcript. Description: qPCR of TRPM2-TE transcript after siRNA transfection in Mel Im cells. Particulars: siRNA 10 nM, harvested at 24 hours, respect to mock-transfected cells.
Source text: as §1

A further data set has as its system Melanoma cells. The data set is described as follows: Apoptosis detection by flow cytometry (Annexin V) after siRNA transfection. To be noted: 72 h after transfection. The procedure:
Apoptosis was measured after a 72 h transfection with any of the following siRNA: TRPM2-AS—657, TRPM2-AS—734, TRPM2-TE—55 or the non-specific siRNA. Early and late apoptotic cells were assessed by flow cytometry using the Annexin V-Fitc Apoptosis Detection kit (Immunostep, Salamanca, Spain), following manufacturer's instructions. Data acquisition and analysis were done in a FACSort Cytometer (Becton Dickinson, Franklin Lakes, N.J.) using CellQuest and FCS Express software.

Data set [1] concerns CpG island located between TRPM2-AS and TRPM2-TE transcripts. The data set is described as follows: De-novo DNA methylation of the CpG island, bisulphite sequencing of clones. To be noted: Mel Im cells, liposome-encapsulated oligonucleotides 3 μM final, 24 hours. The procedure:
Genomic DNA was isolated and purified with TRIzol reagent (Invitrogen) and quantified with a Nanodrop. Average 100 ng of each DNA sample were subjected to bisulphite modification with the MethylEasy Kit (Human Genetic Signatures) allowing the sulphonation reaction to proceed for no less than 8 hours at 55° C. Following conversion, 3 μl of the modified DNAs were PCR amplified with the primers CpG-8U 5′-[…]-3′ (SEQ ID No. 3) and CpG-8L 5′-[…]-3′ (SEQ ID No. 4) (1 ng/μl each) in the presence of buffer 10× (Qiagen), dNTPs (2 mmol/L), 5× Solution Q (Qiagen), Taq DNA Polymerase (3U), with the reaction conditions being: 1 minute of pre-incubation at 95° C., then amplification reactions were performed by 35 repetitive cycles of denaturing for 1 minute at 95° C., annealing for 2 minutes at 55° C. and extension for 2 minutes at 72° C. A semi-nested PCR reaction was performed in same conditions except for the forward primer changed to CpG-1U 5′-[…]-3′ (SEQ ID No. 5), using 4 μl of the previous 472 bp per product as template. The resulting 370 bp product was then gel-purified, cloned and sequenced using standard procedures.
Three phosphorothioate oligonucleotides were designed in which the cytosines in CpG dinucleotides were replaced by m^5 CpG. […]

Consider “5′-AGGUAGUGUAAUCGCCUUG(dTdT)-3′ [non-specific siRNA, reference compound]”, for which the “knock-down of TRPM2-AS transcript expression” value with TRPM2-AS transcript was “No significant down-regulation”. The “knock-out of TRPM2-TE transcripts/molecules” value with TRPM2-TE transcript is reported as “No significant down-regulation”.
Take “5′-CCACUUACUCAUCCAAGAA(dTdT)-3′ [TRPM2-AS—734]”: the “knock-down of TRPM2-AS transcript expression” value in the data set on TRPM2-AS transcript stood at 75%. Further, in the data set on Melanoma cells, the “level of apoptosis vs. the control siRNA or the mock transfected cells” value is recorded as “significant increase”. Moreover, the “knock-out of TRPM2-TE transcripts/molecules” value in the data set with TRPM2-TE transcript amounted to 70%.
The corresponding values for “5′-CCAGUAACUCCGCCCAAAU(dTdT)-3′ [TRPM2-AS—657]” are 69%, “significant increase” and 84%.
The corresponding values for “5′-GAAGGACCACAGAGGAAGU(dTdT)-3′ [TRPM2-TE—55]” are 30%, “significant increase” and 56%.
For the substance “TCCT^mCGGGCTGCTGAGTTT^mCGC^mCGGCCC (DNA TCCTCGGGCTGCTGAGTTTCGCCGGCCC; 5-methylcytosine modifications, chemistry not fully specified) [MOS]”, the “methylation of CpG island clones (5 clones sequenced)” value in data set [1] was “non-methylation”.
